# Data from the supplement of paper PMC11061612.
# Key:
# EW-11 (Ewing's Sarcoma) = experiment: Bliss excess, mean over the matrix (fraction); higher = more synergy
# Outline: (§1)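 Cell lines grown in DMEM/F12 or RPMI with 10% FBS were plated in 1536-well plates and held 24 hours at 37°C, 5% CO2 before 72 hours of exposure to two-drug dose matrices, with DMSO typically at 0.2%. CellTiter-Glo 2.0 luminescence gave viability, which was converted to inhibition. Vehicle wells were set to 0 and blank wells to 1. Combination Emax is the second-highest inhibition in the matrix, and Bliss excess is the observed combination effect minus the expected EA + EB − EA·EB, where EA and EB are the single-agent effects.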
# [1] = system: OV-56 (Ovarian Carcinoma); experiment: as above
# Outline: as §1
# [2] = system: Detroit562 (Head and Neck Carcinoma); experiment: as above
# Outline: as §1
# [3] = system: KMRC-20 (Kidney Carcinoma); experiment: as above
# Outline: as §1
# NCI-H2052 (Mesothelioma) = experiment: as above
# Outline: as §1
# [4] = system: OE21 (Esophageal Squamous Cell Carcinoma); experiment: as above
# Outline: as §1
# [5] = system: SAS (Oral Cavity Carcinoma); experiment: as above
# Outline: as §1
# [6] = system: LCLC-97TM1 (Non-Small Cell Lung Carcinoma); experiment: as above
# Outline: as §1
# MPP-89 (Mesothelioma) = experiment: as above
# Outline: as §1
# [7] = system: OVCAR-5 (Ovarian Carcinoma); experiment: as above
# Outline: as §1
# NCI-H2722 (Mesothelioma) = experiment: as above
# Outline: as §1
# [8] = system: SW1710 (Bladder Carcinoma); experiment: as above
# Outline: as §1
# [9] = system: KYAE-1 (Esophageal Adenocarcinoma); experiment: as above
# Outline: as §1
# LOXIMVI (Melanoma) [10] = experiment: as above
# Outline: as §1
# CAL-72 (Osteosarcoma) [11] = experiment: as above
# Outline: as §1
# [12] = system: KMRC-20 (Kidney Carcinoma); experiment: combination Emax (second highest fraction inhibited in the dose matrix, 72 h); higher = more inhibition; extreme values may be limits of the assay
# Outline: as §1
# [13] = system: OE21 (Esophageal Squamous Cell Carcinoma); experiment: as above
# Outline: as §1
# LOXIMVI (Melanoma) [14] = experiment: as above
# Outline: as §1
# [15] = system: HuH-7 (Hepatocellular Carcinoma); experiment: as above
# Outline: as §1
# CAL-72 (Osteosarcoma) [16] = experiment: as above
# Outline: as §1
# 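Wherever Bliss excess, mean over the matrix is given: after 72 h of two-drug dosing.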
Compound,Bliss excess (EW-11 (Ewing's Sarcoma)),Bliss excess [1],Bliss excess [2],Bliss excess [3],Bliss excess (NCI-H2052 (Mesothelioma)),Bliss excess [4],Bliss excess [5],Bliss excess [6],Bliss excess (MPP-89 (Mesothelioma)),Bliss excess [7],Bliss excess (NCI-H2722 (Mesothelioma)),Bliss excess [8],Bliss excess [9],Bliss excess (LOXIMVI (Melanoma) [10]),Bliss excess (CAL-72 (Osteosarcoma) [11]),combination Emax [12],combination Emax [13],combination Emax (LOXIMVI (Melanoma) [14]),combination Emax [15],combination Emax (CAL-72 (Osteosarcoma) [16])
"CN(C)CCCOc1ccc(-c2ccc3ncc4c(c3c2)n(C2CCOCC2)c(=O)n4C)cn1 [AZD0156] + C=CCn1c(=O)c2cnc(Nc3ccc(N4CCN(C)CC4)cc3)nc2n1-c1cccc(C(C)(C)O)n1 [AZD1775] (first compound max 1 µM, partner max 1 µM)",-0.0426,-0.0459,-0.0122,-0.0707,-0.0554,0.0083,-0.0742,-0.0179,-0.0513,-0.0043,-0.0363,-0.0205,-0.0143,0.0604,-0.0492,0.596,0.567,0.753,0.262,0.778
"CN(C)CCCOc1ccc(-c2ccc3ncc4c(c3c2)n(C2CCOCC2)c(=O)n4C)cn1 [AZD0156] + CCN(CCO)CCCOc1ccc2c(Nc3cc(CC(=O)Nc4cccc(F)c4)[nH]n3)ncnc2c1 [AZD2811] (first compound max 1 µM, 7x7, partner max 1 µM)",-0.084,-0.0176,0.0235,-0.0499,-0.0123,-0.0048,-0.0391,0.0765,-0.0402,-0.0281,-0.0226,-0.0288,-0.0154,-0.0125,-0.0213,0.128,0.22,0.4,0.0893,0.286
"CN(C)CCCOc1ccc(-c2ccc3ncc4c(c3c2)n(C2CCOCC2)c(=O)n4C)cn1 [AZD0156] + C[C@@H]1COCCN1C2=NC(=NC(=C2)C3(CC3)[S@](=N)(=O)C)C4=C5C=CNC5=NC=C4 [AZD6738] (first compound max 1 µM, 7x7, partner max 10 µM)",-0.112,0.0361,0.0477,-0.031,-0.0317,0.0015,-0.0363,-0.0039,0.0041,-0.001,-0.0384,-0.0134,-0.011,0.0721,0.111,0.65,0.696,0.908,0.325,0.889
"CN(C)CCCOc1ccc(-c2ccc3ncc4c(c3c2)n(C2CCOCC2)c(=O)n4C)cn1 [AZD0156] + O=C(c1cc(Cc2n[nH]c(=O)c3ccccc23)ccc1F)N1CCN(C(=O)C2CC2)CC1 [Olaparib] (first compound max 3 µM, partner max 3 µM)",0.0995,-0.0449,0.058,0.0163,-0.0064,-0.0006,0.0188,-0.0124,-0.0547,-0.0123,-0.017,-0.0233,0.0247,0.0317,0.0475,0.189,0.283,0.377,0.16,0.416
"C=CCn1c(=O)c2cnc(Nc3ccc(N4CCN(C)CC4)cc3)nc2n1-c1cccc(C(C)(C)O)n1 [AZD1775] + C1CN(CCC1(C(=O)N[C@@H](CCO)C2=CC=C(C=C2)Cl)N)C3=NC=NC4=C3C=CN4 [Capivasertib] (first compound max 3 µM, partner max 3 µM)",0.0203,-0.0263,0.0209,-0.0646,-0.0369,-0.0253,-0.0206,-0.0545,-0.0704,-0.0923,-0.0603,0.0334,-0.0284,0.0764,0.0259,0.711,0.747,0.793,0.471,0.845
"C=CCn1c(=O)c2cnc(Nc3ccc(N4CCN(C)CC4)cc3)nc2n1-c1cccc(C(C)(C)O)n1 [AZD1775] + C[C@@H]1COCCN1C2=NC(=NC(=C2)C3(CC3)[S@](=N)(=O)C)C4=C5C=CNC5=NC=C4 [AZD6738] (first compound max 1 µM, partner max 10 µM)",-0.0282,0.0141,-0.002,0.0174,-0.0197,-0.0207,0.0138,-0.0323,0.0013,0.0146,-0.0029,0.0811,0.026,-0.0609,-0.0277,0.763,0.746,0.883,0.487,0.93
"C=CCn1c(=O)c2cnc(Nc3ccc(N4CCN(C)CC4)cc3)nc2n1-c1cccc(C(C)(C)O)n1 [AZD1775] + O=C(c1cc(Cc2n[nH]c(=O)c3ccccc23)ccc1F)N1CCN(C(=O)C2CC2)CC1 [Olaparib] (first compound max 1 µM, partner max 10 µM)",-0.121,-0.0576,-0.0389,-0.112,-0.0602,-0.0216,-0.0939,-0.0833,-0.0018,-0.041,-0.0143,-0.0299,-0.0006,-0.0897,-0.0871,0.567,0.498,0.638,0.304,0.756
"CCN(CCO)CCCOc1ccc2c(Nc3cc(CC(=O)Nc4cccc(F)c4)[nH]n3)ncnc2c1 [AZD2811] + C=CCn1c(=O)c2cnc(Nc3ccc(N4CCN(C)CC4)cc3)nc2n1-c1cccc(C(C)(C)O)n1 [AZD1775] (first compound max 1 µM, partner max 1 µM)",0.0003,-0.0152,0.05,-0.0562,-0.0485,-0.0577,-0.0526,0.033,-0.0173,-0.0616,0.023,0.0084,-0.0176,0.0351,-0.0866,0.6,0.468,0.959,0.132,0.728
"CCN(CCO)CCCOc1ccc2c(Nc3cc(CC(=O)Nc4cccc(F)c4)[nH]n3)ncnc2c1 [AZD2811] + C[C@@H]1COCCN1C2=NC(=NC(=C2)C3(CC3)[S@](=N)(=O)C)C4=C5C=CNC5=NC=C4 [AZD6738] (first compound max 1 µM, 7x7, partner max 10 µM)",-0.0229,-0.11,-0.0108,-0.0667,-0.0207,-0.142,-0.0354,0.0116,-0.0823,-0.0429,0.006,-0.0975,-0.0234,-0.0763,-0.0863,0.596,0.666,0.746,0.293,0.843
"CN(CCO)CC[C@H](CSc1ccccc1)Nc1ccc(S(=O)(=O)NC(=O)c2ccc(N3CCC([C@@H](O)c4ccccc4-c4ccc(Cl)cc4)CC3)cc2)cc1S(=O)(=O)C(F)(F)F [AZD4320] + C=CCn1c(=O)c2cnc(Nc3ccc(N4CCN(C)CC4)cc3)nc2n1-c1cccc(C(C)(C)O)n1 [AZD1775] (first compound max 1 µM, partner max 1 µM)",0.091,-0.0113,-0.0067,0.0331,0.0004,–,0.05,0.0015,0.0351,–,0.042,-0.0047,0.032,0.0203,0.0392,0.61,0.641,0.691,0.729,0.782
"Cc1c2c(nn1C)CSCc1cc(n(C)n1)CSc1cc(c3ccccc3c1)OCCCc1c(C(=O)O)n(C)c3c-2c(Cl)ccc13 [AZD5991] + CN(C)CCCOc1ccc(-c2ccc3ncc4c(c3c2)n(C2CCOCC2)c(=O)n4C)cn1 [AZD0156] (first compound max 1 µM, 7x7, partner max 1 µM)",-0.0946,-0.0276,-0.0251,-0.0036,-0.0027,0.0133,0.0142,-0.0018,–,-0.024,-0.0302,-0.0134,-0.0009,0.0016,0.0298,0.218,0.345,0.363,0.252,0.328
"CS(=O)(=O)CCNCc1ccc(-c2ccc3ncnc(Nc4ccc(OCc5cccc(F)c5)c(Cl)c4)c3c2)o1 [Lapatinib] + NC1(c2ccc(-c3nc4ccn5c(=O)[nH]nc5c4cc3-c3ccccc3)cc2)CCC1 [MK-2206] (first compound max 10 µM, 7x7, partner max 10 µM)",-0.0003,–,–,–,-0.0143,–,0.0044,–,-0.0391,-0.0101,–,-0.0417,0.0176,0.043,0.0288,–,–,0.967,–,0.89
"CCc1c2c(nc3ccc(O)cc13)-c1cc3c(c(=O)n1C2)COC(=O)[C@]3(O)CC [SN-38] + O=C(c1cc(Cc2n[nH]c(=O)c3ccccc23)ccc1F)N1CCN(C(=O)C2CC2)CC1 [Olaparib] (first compound max 0.3 µM, 7x7, partner max 10 µM)",-0.0291,–,–,–,–,-0.0198,0.0501,–,0.0504,-0.0161,0.0188,0.037,-0.0184,0.0214,0.113,–,0.669,0.784,–,0.708
